These results are taken from ChEMBL document CHEMBL5236652, “Neuritogenic steroid glycosides from crown-of-thorns starfish: Possible involvement of p38 mitogen-activated protein kinase and attenuation of cognitive impairment in senescence-accelerated mice (SAMP8) by peripheral administration” (Bioorg Med Chem, 2023).

Calls of active or inactive are those of the source. The calls are words filed in the database; no cut-off is given here.

The test system of data set [1] is PC-12. In words: Neuritogenic activity in rat PC-12 cells assessed as induction of neurite outgrowth at 40 uM incubated for 6 days by microscopic analysis. The class given is functional.
A short description of data set [2]: Drug uptake in ICR mouse brain at 10 mg/kg,sc and measured at 60 mins by LC-MS analysis. The class given is ADME, organism-based. To be noted: read-out: Drug uptake.
The test system of data set [3] is PC-12. In words: Neuritogenic activity in rat PC-12 cells assessed as induction of neurite outgrowth at 40 uM incubated for 1 to 6 days by microscopic analysis. The class given is functional, cell-based. To be noted: time 1-6 day, TDE = time-dependent effect.
Data set [4] concerns PC-12. As to the kind of experiment: Neuritogenic activity in rat PC-12 cells assessed as increase in p38 phosphorylation at 40 uM and measured upto 24 hrs by Western blot analysis. The class given is functional, cell-based. In general terms: In western blotting, separated proteins are transferred to a membrane and probed.
The test system of data set [5] is Mus musculus. In words: Cognitive enhancing effect in aged ICR mouse assessed as improvement of spontaneous alternation behavior by analyzing entry to different arm at 10 mg/kg, sc for 2 weeks by Y-maze test. The class given is functional, organism-based.
Data set [6] can be described thus: Toxicity in ICR mouse assessed as effect on body weight at 1 to 10 mg/kg, sc for 14 days. It is filed as organism-based. To be noted: in vivo, 336 h, dose 1-10 mg/kg, time 14 day.
Data set [7] concerns PC-12. As to the kind of experiment: Neuritogenic activity in rat PC-12 cells assessed as effect on Ras activation at 40 uM incubated for 2 hrs by Western blot analysis. It is filed as functional, cell-based.
Data set [8] concerns PC-12. In words: Neuritogenic activity in rat PC-12 cells assessed as induction of neurite outgrowth at 10 to 40 uM incubated for 6 days by microscopic analysis. It is filed as functional, cell-based. To be noted: dose 10-40 µM, time 6.0 day.
In data set [9] the test system is PC-12. In words: Cytotoxicity against rat PC-12 cells assessed as reduction in cell viability upto 40 uM. It is filed as toxicity, cell-based. To be noted: pc-12, 40 µM.
Data set [10] relates to Mus musculus. As to the kind of experiment: Cognitive enhancing effect in SAMP8 mouse assessed as improvement of spontaneous alternation behavior by analyzing entry to different arm at 1 to 10 mg/kg, sc for 2 weeks by Y-maze test. It is filed as functional, organism-based. To be noted: dose 1-10 mg/kg.
Data set [11] has as its system PC-12. As to the kind of experiment: Neuritogenic activity in rat PC-12 cells overexpressing TrKA assessed as inhibition of neurite outgrowth at 40 uM incubated for 6 days by microscopic analysis. It is filed as functional, cell-based. To be noted: time 6.0 day.
The subject of data set [12] is PC-12. In words: Neuritogenic activity in rat PC-12 cells assessed as effect on TrkA phosphorylation at 40 uM incubated for 4 hrs by Western blot analysis. It is filed as functional, cell-based.
Data set [13] is described as follows: Drug uptake in ICR mouse blood at 10 mg/kg,sc and measured at 60 mins by LC-MS analysis. To be noted: read-out: Drug uptake. The class given is ADME, organism-based.
Data set [14] deals with Mus musculus. As to the kind of experiment: Cognitive enhancing effect in aged ICR mouse assessed as longer exploration time at 10 mg/kg, sc for 2 weeks by novel object recognition test. It is filed as functional, organism-based.
The subject of data set [15] is PC-12. In words: Neuritogenic activity in rat PC-12 cells assessed as inhibition of neurite outgrowth at 40 uM incubated for 6 days in presence of PD98059 by microscopic analysis. It is filed as functional, cell-based. To be noted: time 6.0 day.
Data set [16] has as its system PC-12. As to the kind of experiment: Neuritogenic activity in rat PC-12 cells assessed as effect on Cdc42 activation at 40 uM incubated for 8 to 12 hrs by Western blot analysis. The class given is functional, cell-based. To be noted: time 8-12 hrs.
Data set [17] relates to PC-12. As to the kind of experiment: Neuritogenic activity in rat PC-12 cells assessed as inhibition of neurite outgrowth at 1 uM incubated for 6 days in presence of SB203580 by microscopic analysis. The class given is functional, cell-based. To be noted: time 6.0 day.
The test system of data set [18] is Mus musculus. As to the kind of experiment: Cognitive enhancing effect in SAMP8 mouse assessed as longer exploration time at 10 mg/kg, sc for 2 weeks by Novel object recognition test. The class given is functional, organism-based.
Data set [19] concerns PC-12. As to the kind of experiment: Neuritogenic activity in rat PC-12 cells assessed as decrease in ERK phosphorylation at 40 uM and incubated for 1 to 2 hrs by Western blot analysis. It is filed as functional, cell-based. To be noted: time 1-2 hrs.
Data set [20] deals with PC-12. In words: Neuritogenic activity in rat PC-12 cells assessed as inhibition of neurite outgrowth at 40 uM incubated for 6 days in presence of K252a by microscopic analysis. To be noted: time 6.0 day. It is filed as functional, cell-based.
Data set [21] can be described thus: Drug uptake in ICR mouse brain at 10 mg/kg,sc and measured upto 120 mins by LC-MS analysis. To be noted: read-out: Drug uptake. The class given is ADME, organism-based.
Data set [22] deals with Mus musculus. In words: Cognitive enhancing effect in SAMP8 mouse assessed as effect on locomotion by analyzing entry to different arm at 1 to 10 mg/kg, sc for 2 weeks by Y-maze test. To be noted: dose 1-10 mg/kg. The class given is functional, organism-based.
Data set [23] relates to PC-12. In words: Neuritogenic activity in rat PC-12 cells assessed as inhibition of neurite outgrowth at 40 uM incubated for 6 days in presence of […] by microscopic analysis. The class given is functional, cell-based. To be noted: time 6.0 day.
Data set [24] can be described thus: Drug uptake in ICR mouse blood at 10 mg/kg,sc and measured upto 120 mins by LC-MS analysis. To be noted: read-out: Drug uptake. The class given is ADME, organism-based.

For `CO[C@H]1[C@H](O[C@@H]2C=C3[C@H](O)C[C@@]4(O)[C@@H]5[C@@H](O)[C@H](O)[C@H]([C@H](C)CC[C@H](CO)C(C)C)[C@@]5(C)CC[C@@H]4[C@@]3(C)CC2)OC[C@@H](O)[C@@H]1O`, the outcome in the data set with PC-12 [1] (time 6.0 day) was inactive.
With `CO[C@@H]1[C@@H](O)[C@H](OC[C@@H](CC[C@@H](C)[C@H]2[C@@H](O)[C@H](O)[C@@H]3[C@]2(C)CC[C@H]2[C@@]3(O)C[C@@H](O)C3=C[C@@H](O[C@@H]4OC[C@@H](O)[C@H](O)[C@H]4OC)CC[C@@]32C)C(C)C)OC[C@H]1O`, the Activity in the data set with PC-12 [1] (time 6 day) came to 43%.
As to `CO[C@H]1[C@H](O[C@@H]2C=C3[C@H](O)C[C@@]4(O)[C@@H]5[C@@H](O)[C@H](O)[C@H]([C@H](C)CC[C@H](CO[C@@H]6OC[C@@H](O)[C@H](O)[C@H]6O)C(C)C)[C@@]5(C)CC[C@@H]4[C@@]3(C)CC2)OC[C@@H](O)[C@@H]1O`, the concentration at 1 h in data set [2] stood at 30 ng/g; in [13] it was 2000 ng/mL. Further, the Activity result is “Tde” in the data set on PC-12 [3]; “Non-Toxic” in data set [6]; “Dose-Dependent Effect” with PC-12 [8]; “Non-Toxic” in the data set with PC-12 [9]; 43% in the data set with PC-12 [1] (time 6 day). Besides, the outcome with PC-12 [4], in the data set with Mus musculus [5], in the data set with Mus musculus [10], with Mus musculus [14], in the data set on PC-12 [16] and in the data set on Mus musculus [18] was Active. In addition, the result in the data set on PC-12 [19] was Active. Also, the outcome in the data set with PC-12 [7], in the data set on PC-12 [11], in the data set with PC-12 [12], in the data set on PC-12 [15], in the data set with PC-12 [17] and with PC-12 [20] was inactive. Besides, the outcome in the data set with Mus musculus [22] and in the data set on PC-12 [23] was inactive. In addition, the values for the concentration at 2 h in data set [21] and in data set [24] were 5 ng/g and 7.7 ng/mL, respectively.
